From paper PMC5795001, “The activity of the C4-dicarboxylic acid chemoreceptor of Pseudomonas aeruginosa is controlled by chemoattractants and antagonists” (Scientific Reports, 2018)
Entries after “also recorded” stand apart in the source; their conditions may differ.

Legend:
[1] = molecular target: T1, PA2652-LBD (Pseudomonas aeruginosa, UniProt Q9I0I6); format: binding, Pseudomonas aeruginosa PAO1; details: for Tm Shift: Biolog arrays PM1, PM2A, PM3b, PM4a, PM5, relative to ligand-free protein Tm 45.5 °C; for Tm increases: DSF screening as described in text, 2 °C threshold for significant hits
T1 construct: The DNA fragment encoding the LBD of PA2652 (Lys^34–Thr^205) was amplified; His-tag (vector-encoded by pET28b(+) via NdeI site); made in house; host or cells: Escherichia coli BL21 (DE3)
T1 sequence (Q9I0I6 34-205): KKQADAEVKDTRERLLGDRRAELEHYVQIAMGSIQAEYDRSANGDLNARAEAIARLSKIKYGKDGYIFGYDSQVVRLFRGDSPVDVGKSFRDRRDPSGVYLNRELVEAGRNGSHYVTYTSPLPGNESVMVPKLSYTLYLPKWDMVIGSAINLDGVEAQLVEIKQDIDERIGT
Description: To identify ligands that may bind to the LBD of PA2652, we conducted Differential Scanning Fluorimetry (DSF) based high throughput ligand screening assays as described previously[37],[38]. DSF analyses permit the determination of melting temperature (Tm) values, which corresponds to the temperature at which half the protein is in its native conformation whereas the remaining half has undergone thermal unfolding. Since ligand binding typically enhances the thermal stability of proteins, increases in the Tm in the presence of ligands may be indicative of specific binding. We screened 450 different compounds available in five different ligand arrays from Biolog (Supplementary Fig. S3). The screened collection included different carbon and nitrogen sources, phosphorous and sulfurous compounds as well as different nutrient supplements.
Thermal shift assays were performed on a MyIQ2 Real-Time PCR instrument (BioRad). Ligands from the different compound arrays (Biolog, Hayward, CA, USA; see Supplementary Fig. S3) were dissolved in 50 μl of MilliQ water, which, according to the manufacturer, corresponds to a concentration of 10–20 mM. Screening was performed using 96 wells plates. Each well contained 20 μM of protein dialyzed into TNG buffer (20 mM Tris/HCl, 150 mM NaCl, 10% (v/v) glycerol, pH 6.7), 2.5 μl of the resuspended compounds and SYPRO Orange (Life Technologies) at 5× concentration. In a single well (ligand free protein) the compound was substituted by water. Samples were heated from 23 °C to 85 °C at a scan rate of 1 °C/min. The protein unfolding curves were obtained by following the changes in SYPRO Orange fluorescence. Melting temperatures were determined using the first derivative values from the raw fluorescence data.

[2] = molecular target: T1, PA2652-LBD; assay: biochemical; format: binding, Pseudomonas aeruginosa PAO1; details: for Binding in ITC: YES/NO
Description: To unambiguously determine ligand binding, we conducted Isothermal Titration Calorimetry (ITC)[40] binding studies with the purified protein.
Experiments were conducted on a VP-microcalorimeter (Microcal, Amherst, MA, USA) at 20 °C. PA2652-LBD was dialyzed overnight against TNG buffer, adjusted to a concentration of 20–35 μM and placed into the sample cell of the instrument. The protein was titrated by the injection of 9.6–14.4 μl aliquots of 1–20 mM ligand solutions that were prepared in TNG buffer (20 mM Tris/HCl, 150 mM NaCl, 10% (v/v) glycerol, pH 6.8) immediately before use. The mean enthalpies measured from the injection of ligands into buffer were subtracted from raw titration data prior to data analysis with the MicroCal version of ORIGIN. Data were fitted with the “One binding site model”.

[3] = system: Pseudomonas aeruginosa PAO1 (wt and PA2652 mutant); assay: Growth experiments with ligands as sole carbon source; format: cell-based; details: M9 minimal medium, 10 mM carbon source
Description: To evaluate the physiological relevance of the ligands identified, we first addressed the question of whether they could support bacterial growth as sole carbon source. To this end, we conducted growth experiments of the wild type (wt) strain and a mutant defective in PA2652 in minimal medium supplemented with the different ligands as sole carbon sources.
Bacterial strains used in this study are listed in Supplementary Table S3. Pseudomonas aeruginosa PAO1 and its derivative strains were routinely grown at 37 °C in Luria Broth (LB; 5 g yeast extract l^−1, 10 g Bacto tryptone l^−1 and 5 g NaCl l^−1) or M9 medium supplemented with 1 mM MgSO4, 6 mg l^−1 Fe-citrate, trace elements[81] and 15 mM glucose as carbon source. For growth experiments to assess the capacity of PA2652-LBD ligands to support growth a sole C-source, PAO1 cells were pre-cultured overnight in M9 medium supplemented with 10 mM glucose and washed twice with M9 medium salts, prior to the inoculation of M9 medium containing10 mM of the different carbon sources. When necessary, the pH of the medium was adjusted to 7.0 prior to inoculation. Bacterial growth over the time was monitored using Bioscreen Microbiological Growth Analyser (Oy Growth Curves Ab Ltd, Helsinki, Finland). Escherichia coli strains were grown at 37 °C in LB. Escherichia coli DH5α was used as a host for gene cloning. When appropriate, antibiotics were used at the following final concentrations (in µg ml^−1): kanamycin, 25 (E. coli strains) and 100 (Pseudomonas strains); tetracycline, 40.

[4] = system: Pseudomonas aeruginosa PAO1; assay: Quantitative capillary chemotaxis assay, wild type; format: cell-based; details: for Concentration of maximum chemotactic response / Chemotactic response: wt PAO1; for Chemotactic response: ligands at 10 µM to 100 mM; for Role of PA2652 ligand (chemoattractant or antagonist): authors' classification from chemotaxis results
Description: Secondly, we assessed the capacity of the ligands identified to induce chemotaxis. To this end, we carried out quantitative capillary chemotaxis assays using the wt strain and PA2652 ligands at concentrations ranging from 10 µM to 100 mM.
Overnight cultures of P. aeruginosa strains were diluted to an OD660 of 0.05 in MS medium (30 mM Na2HPO4, 20 mM KH2PO4, 25 mM NH4NO3, 1 mM MgSO4) supplemented with 6 mg l^−1 Fe-citrate, trace elements[81] and 15 mM glucose as carbon source, and grown at 37 °C with orbital shaking (200 rpm). At an OD660 of 0.4 ([…]) cultures were centrifuged at 1,700 × g for 5 min and the resulting pellet was washed twice with chemotaxis buffer (50 mM potassium phosphate, […], 0.05% (v/v) glycerol, pH 7.0). Subsequently, the cells were resuspended in the same buffer, adjusted to an OD660 of 0.1 and 230 µl aliquots of the bacterial cultures were placed into 96-well plates. For the quantitative assays, one-microliter capillary tubes (Microcaps, Drummond Scientific, Ref. P1424) were heat-sealed at one end and filled with either the chemotaxis buffer (negative control) or chemotaxis buffer containing the chemoeffectors to test. The capillaries were immersed into the bacterial suspensions at its open end. After 30 min at room temperature, capillaries were removed from the bacterial suspensions, rinsed with sterile water and the content expelled into 1 ml of M9 medium salts. Serial dilutions were plated onto M9 minimal medium (containing the appropriate antibiotics) supplemented with 15 mM glucose as carbon source. The number of colony forming units was determined after overnight incubation. In all cases, data were corrected with the number of cells that swam into buffer containing capillaries.

[5] = system: Pseudomonas aeruginosa PAO1; assay: Capillary chemotaxis assay in presence of antagonists; format: cell-based; details: for Effect of antagonist on chemotaxis toward L-alanine: 1 mM L-alanine, 20 or 40 mM antagonist; for Effect of antagonist on chemotaxis toward L-malic acid: 1 mM L-malic acid, 10, 20 and 40 mM antagonist in suspension and capillary
Description: To this end we conducted chemotaxis assays toward L-malic acid in the absence or presence of 10, 20 and 40 mM of citraconic and D,L-methylsuccinic acids (that were added to both, the bacterial suspension and the chemoattractant solution). […] To verify whether the presence of antagonists may have a global inhibitory effect on the chemotactic properties of P. aeruginosa we performed assays toward L-alanine, a chemoattractant recognized by the receptors PctA and PctB[15], in the presence antagonists.
To determine the effect of antagonists in the chemotactic properties of PAO1, the assay was performed as previously described with two minor modifications: (i) Capillary tubes were filled with chemotaxis buffer containing 1 mM of the chemoattractants (L-malic acid or L-alanine) and 10–40 mM of the antagonists (methylsuccinic or citraconic acids); (ii) Bacterial cultures were washed with chemotaxis buffer and cells were finally resuspended in the same buffer but containing equimolar concentrations of methylsuccinic/citraconic acids to those present in the capillary tubes.

For `O=C(O)[C@H](O)[C@@H](O)C(=O)O` [L-tartaric acid], the “Tm Shift” value [1] was “No significant shift”, the “Binding to PA2652-LBD in ITC (in words)” value [2] was “No binding” and the “Binding to PA2652-LBD in ITC (in words)” value ([2]; listed as tartaric acid) was “absence of binding”.
`CC(O)(CC(=O)O)C(=O)O` (racemic) [D,L-citramalic acid] was tested, and the Tm increases [1] was “hits”, the Kd [2] was 61 ± 4 µM and the “Binding in ITC” value [2] was “YES”. The “Ability to support bacterial growth as sole carbon source” value (“Ability to support bacterial growth” for short) [3] was “able to efficiently sustain growth”, the “Concentration of maximum chemotactic response” value [4] was 10 mM and the Chemotactic response [4] was “Significant responses; also recorded: significant chemotaxis”.
For `O=C(O)/C=C/C(=O)O` [Fumaric acid], the “Tm Shift” value [1] was “No significant shift”, the “Binding to PA2652-LBD in ITC (in words)” value [2] was “No binding” and the “Binding to PA2652-LBD in ITC (in words)” value ([2]; listed as fumaric acid) was “absence of binding”.
With `C[C@H](CC(=O)O)C(=O)O` [D-methylsuccinic acid] the “Binding to PA2652-LBD in ITC (in words)” value [2] was “no binding was observed”.
`O=C(O)CCC(=O)O` [Succinic acid] was tested, and the “Tm Shift” value [1] was “No significant shift”, the “Binding to PA2652-LBD in ITC (in words)” value [2] was “No binding” and the “Binding to PA2652-LBD in ITC (in words)” value ([2]; listed as succinic acid) was “absence of binding”.
`O=C(O)C[C@@H](O)C(=O)O` [D-malic acid] was tested, and the “Tm Shift” value [1] was “No significant shift”, the Tm increases [1] was “did not cause significant increases” and the “Binding to PA2652-LBD in ITC (in words)” value [2] was “did not show binding; also recorded: No binding”.
In the case of `O=C(O)CCCC(=O)O` [Glutaric acid], the “Tm Shift” value [1] is reported as “No significant shift”.
`C[C@@H](CC(=O)O)C(=O)O` [L-methylsuccinic acid] was tested, and the “Role of PA2652 ligand (chemoattractant or antagonist)” value (“Role of PA2652 ligand” for short) [4] was “antagonists”.
With `C/C(=C/C(=O)O)C(=O)O` [citraconic acid] the Tm increases [1] was “hits”, the Kd [2] was 210 ± 15 µM and the “Binding in ITC” value [2] was “YES”. For the same compound, the “Ability to support bacterial growth” value [3] was “could not be used as sole carbon source”, the “Role of PA2652 ligand” value [4] was “antagonists” and the Chemotactic response [4] was “did not cause any chemotactic response and no”. For the same compound, the “Effect of antagonist on chemotaxis toward L-alanine” value [5] was “did not significantly alter the chemotaxis” and the “Effect of antagonist on chemotaxis toward L-malic acid” value [5] was “reduced the chemotaxis toward L-malic acid”.
For `O=C(O)CC(Br)C(=O)O` (racemic) [D,L-bromosuccinic acid], the Tm increases [1] was “more than 2 °C”, the Kd [2] was 1240 ± 700 µM and the “Binding in ITC” value [2] was “YES”. For the same compound, the “Ability to support bacterial growth” value [3] was “poorly supported bacterial growth”, the “Role of PA2652 ligand” value [4] was “chemoattractants” and the “Concentration of maximum chemotactic response” value [4] was 10 mM. For the same compound, the Chemotactic response [4] was “Significant responses; also recorded: significant chemotaxis”.
`C[C@](O)(CC(=O)O)C(=O)O` [L-citramalic acid] was tested, and the “Role of PA2652 ligand” value [4] was “chemoattractants”.
`O=C(O)CC(=O)C(=O)O` [Oxaloacetic acid] was tested, and the “Tm Shift” value [1] was “No significant shift”, the “Binding to PA2652-LBD in ITC (in words)” value [2] was “No binding” and the “Binding to PA2652-LBD in ITC (in words)” value ([2]; listed as oxalacetic acid) was “absence of binding”.
`N[C@@H](CC(=O)O)C(=O)O` [L-Aspartic acid] was tested, and the “Tm Shift” value [1] was “No significant shift”, the “Binding to PA2652-LBD in ITC (in words)” value ([2]; listed as L-aminosuccinic acid) was “No binding” and the “Binding to PA2652-LBD in ITC (in words)” value ([2]; listed as aminosuccinic acid) was “absence of binding”.
With `C[C@@H](O)[C@H](N)C(=O)O` [L-threonine] the “Tm Shift” value [1] was “No significant shift” and the “Binding to PA2652-LBD in ITC (in words)” value [2] was “No binding”.
With `CC(CC(=O)O)C(=O)O` (racemic) [D,L-methylsuccinic acid] the Kd [2] was 224 ± 10 µM, the “Binding to PA2652-LBD in ITC (in words)” value [2] was “detection of binding” and the “Binding in ITC” value [2] was “YES”. The “Ability to support bacterial growth” value [3] was “able to efficiently sustain growth”, the Chemotactic response [4] was “Minor but statistically significant responses” and the Chemotactic response ([4]; listed as methylsuccinic acid) was “very minor responses”. For the same compound, the “Effect of antagonist on chemotaxis toward L-alanine” value [5] was “did not significantly alter the chemotaxis” and the “Effect of antagonist on chemotaxis toward L-malic acid” value [5] was “reduced the chemotaxis toward L-malic acid”.
With `C[C@@](O)(CC(=O)O)C(=O)O` [D-citramalic acid] the “Binding to PA2652-LBD in ITC (in words)” value [2] was “no binding was observed”.
